As usually defined, the MIC90 is an inhibitory concentration at the 90% level, which refers to growth in some studies and to a panel of isolates in others. The low end stands for greater potency, the high end for weaker potency.

Results on ten compounds are retold here after ChEMBL document CHEMBL4028867, “Design, Synthesis, and Characterization of N-Oxide-Containing Heterocycles with in Vivo Sterilizing Antitubercular Activity” (J Med Chem, 2017).

Type in all cases: functional
In assay [1] the test system is Mycobacterium tuberculosis. The experiment in a line: Antitubercular activity against streptomycin resistant Mycobacterium tuberculosis H37Rv ATCC 35820 after 24 hrs by MABA method. The settings on record: H37Rv ATCC 35820, 24 h.
Assay [2] concerns Mycobacterium tuberculosis. The experiment in a line: Antitubercular activity against moxifloxacin resistant Mycobacterium tuberculosis H37Rv after 24 hrs by MABA method. In general terms: The colour change of resazurin is a common sign of viable cells or microbes.
In assay [3] the test system is Mycobacterium tuberculosis. Put plainly: Antitubercular activity against bedaquiline resistant Mycobacterium tuberculosis H37Rv after 24 hrs by MABA method.
The test system of assay [4] is Mycobacterium tuberculosis. Put plainly: Antitubercular activity against isoniazid resistant Mycobacterium tuberculosis H37Rv ATCC 35822 after 24 hrs by MABA method. The settings on record: H37Rv ATCC 35822, 24 h.
The subject of assay [5] is Mycobacterium tuberculosis. The experiment in a line: Antitubercular activity against rifampicin resistant Mycobacterium tuberculosis H37Rv ATCC 35838 after 24 hrs by MABA method. The note with it: H37Rv ATCC 35838, 24 h.
For assay [6], the system named is Mycobacterium tuberculosis. Put plainly: Antitubercular activity against capreomycin resistant Mycobacterium tuberculosis H37Rv after 24 hrs by MABA method.

≈ marks a conversion by molar mass, not a printed value. Where only a bound is given, the exact number is not on record here.

As for `O=C(N/N=C/c1ccc2no[n+]([O-])c2c1)c1ccncc1`, the MIC90 turned out to be 17 µM (≈ 4.81 µg/mL) in assay [1]; 5.72 µM (≈ 1.62 µg/mL) in assay [2]; 1.2 µM (≈ 0.34 µg/mL) in assay [3]; 8.59 µM (≈ 2.43 µg/mL) in assay [4]; 3.78 µM (≈ 1.07 µg/mL) in assay [5].

As to `NC(=O)c1c(COc2ccc(/C=N/NC(=O)c3ccncc3)cc2)no[n+]1[O-]`, the MIC90 in assay [1] is above 262 µM; in assay [2] it was 0.66 µM (≈ 0.252 µg/mL); in assay [6] it was above 262 µM; in assay [3], 6.38 µM (≈ 2.44 µg/mL); in assay [4], above 262 µM; in assay [5], 1.99 µM (≈ 0.761 µg/mL).

As for `C[C@@H]1NC(=O)[C@@H](N)CNC(=O)[C@H]([C@H]2CCNC(=N)N2)NC(=O)/C(=C/NC(N)=O)NC(=O)[C@H](CNC(=O)C[C@@H](N)CCCN)NC1=O`, the MIC90 came to 1.72 µM (≈ 1.12 µg/mL) in assay [1] and 60.5 µM (≈ 39.5 µg/mL) in assay [6].

With `NC(=O)c1c(COc2ccccc2/C=N/NC(=O)c2ccncc2)no[n+]1[O-]`, the MIC90 in assay [1] was 27.4 µM (≈ 10.5 µg/mL); in assay [2], 0.81 µM (≈ 0.31 µg/mL); in assay [6] it was above 262 µM; in assay [3], 0.81 µM (≈ 0.31 µg/mL); in assay [4], above 262 µM; in assay [5], 0.44 µM (≈ 0.168 µg/mL).

In the case of `NC(=O)c1c(COc2cccc(/C=N/NC(=O)c3ccncc3)c2)no[n+]1[O-]`, the MIC90 in assay [1] was above 262 µM; in assay [2], 1.22 µM (≈ 0.466 µg/mL); in assay [6] it was above 262 µM; in assay [3] it was 2.56 µM (≈ 0.979 µg/mL); in assay [4] it was above 262 µM; in assay [5] it was 2.31 µM (≈ 0.883 µg/mL).

Consider `COc1nc2ccc(Br)cc2cc1[C@@H](c1ccccc1)[C@@](O)(CCN(C)C)c1cccc2ccccc12` [BEDAQUILINE], for which the MIC90 in assay [1] is 0.06 µM (≈ 0.0333 µg/mL); in assay [2], 0.06 µM (≈ 0.0333 µg/mL); in assay [6] it was 0.06 µM (≈ 0.0333 µg/mL); in assay [3] it was 1.7 µM (≈ 0.944 µg/mL); in assay [4] it was 0.01 µM (≈ 0.00556 µg/mL); in assay [5] it was 0.01 µM (≈ 0.00556 µg/mL).

On to `NNC(=O)c1ccncc1` [ISONIAZID], for which the MIC90 in assay [1] is above 5 µM; in assay [2], 0.28 µM (≈ 0.0384 µg/mL); in assay [6], above 5 µM; in assay [3] it was 0.23 µM (≈ 0.0315 µg/mL); in assay [4] it was above 5 µM; in assay [5] it was 0.35 µM (≈ 0.048 µg/mL).

Consider `COc1c(N2C[C@@H]3CCCN[C@@H]3C2)c(F)cc2c(=O)c(C(=O)O)cn(C3CC3)c12` [MOXIFLOXACIN], for which the MIC90 in assay [1] is 0.36 µM (≈ 0.145 µg/mL); in assay [2], above 8 µM; in assay [6] it was 0.35 µM (≈ 0.141 µg/mL); in assay [3] it was 0.26 µM (≈ 0.104 µg/mL); in assay [4] it was 0.23 µM (≈ 0.0923 µg/mL); in assay [5] it was 0.12 µM (≈ 0.0482 µg/mL).

As for `CO[C@H]1/C=C/O[C@@]2(C)Oc3c(C)c(O)c4c(O)c(c(/C=N/N5CCN(C)CC5)c(O)c4c3C2=O)NC(=O)/C(C)=C\C=C\[C@H](C)[C@H](O)[C@@H](C)[C@@H](O)[C@@H](C)[C@H](OC(C)=O)[C@@H]1C` [RIFAMPIN], the MIC90 in assay [1] was 0.03 µM (≈ 0.0247 µg/mL); in assay [6], 0.21 µM (≈ 0.173 µg/mL); in assay [3], 0.04 µM (≈ 0.0329 µg/mL); in assay [4] it was 0.01 µM (≈ 0.00823 µg/mL); in assay [5] it was above 1 µM.

With `CN[C@@H]1[C@H](O[C@H]2[C@H](O[C@H]3[C@H](O)[C@@H](O)[C@H](N=C(N)N)[C@@H](O)[C@@H]3N=C(N)N)O[C@@H](C)[C@]2(O)C=O)O[C@@H](CO)[C@H](O)[C@H]1O` [STREPTOMYCIN], the values for the MIC90 in assay [1] and in assay [6] were above 100 µM and 2.55 µM (≈ 1.48 µg/mL), respectively.
